Test results taken from US11771765B2, “Light augmented treatment method” (The Procter & Gamble Company, priority 2019, dated 2023).

How the values were obtained:
M. furfur = M. furfur growth after 20 min treatment, then 409 nm light or dark (Table 2); type: cell-based, Malassezia furfur
Method: Cells are grown in the medium of choice, generally one requiring respiration. In the case of Malassezia furfur that medium is modified Dixon medium (mDixon) (per one liter: 36 g malt extract (Difco 0186-17), 20 g ox bile (provided by American Laboratories, Inc., of Omaha, Nebraska, as Lot No. 03130792), 10 ml Tween 40 (Aldrich 27435-6), 6 g peptone (Difco 0118-17), 2 ml oleic acid (Baker 2114-01), and 2 ml glycerol (Sigma G-7893)). [Candida and YPG, Saccharomyces and YNB (without amino acids) to which we added 40 μg/ml each of uracil, histidine, and methionine plus 130 μg/ml leucine and 2% ethanol and 0.1% yeast extract.] Conventional medium may also be used for other microbials. Starting cultures are prepared by diluting a fresh overnight culture that is out of log phase 1:100 and incubating with shaking at 31° C. in a 250 mL shake flask (Corning, 431144) with 20 mL medium shaking at 200-250 rpm for about 3 hours to ensure the cells had returned to growth phase. At this time, the test agent is added to the flasks to afford the final concentration for testing. The cells are cultured for 1 hour with the test agent. At this time, the cells typically have an OD at 600 nm in the range of 0.25 to 0.8. Generally, we isolate 2.5 OD*mLs of cells calculated as desired OD*mLs divided by the OD600 of the cells. These media samples are centrifuged (Beckman Coulter Allegra™ 6KR centrifuge) 10 minutes at RT at 3200 rpm to pellet the cells. The supernatant is poured off and the tubes are set upside down on a folded paper towel to drain off the remains of media. Two and one half milliliters of PBS (Gibco, pH 7.4, without magnesium chloride or calcium chloride, 14190-144) is added and the cells resuspended. One mL of cells is transferred to each of two 12-well plates (Falcon, polystyrene, 353043). One plate is stored in the dark and the other is exposed to the light with the plate cover on the plate. […] When the light exposure is completed, the samples are mixed by slowly vortexing or pipetting and 0.65 mL of each sample is transferred to 13 mL of medium for overnight growth at 31° C. with shaking. The following morning, typically 18 hours later, the ODs at 600 nm are determined. Successful materials are those that show at least a 50% reduction in growth after light exposure relative to a dark sample.
M. furfur is incubated for twenty minutes with the indicated treatment. A cell pellet is collected after centrifugation so that most of the anti-fungal materials is expected to have been removed. The cell pellet is suspended in PBS and either treated with light (409 nm, 1100 foot candles) for ten minutes or stored in the dark for ten minutes. Samples are then diluted into mDixon with subsequent growth indicated by OD 600 nm.

M. furfur CBS 7982 = test: Fractional Inhibitor Concentration (FIC): antimicrobial plus 409 nm light on M. furfur growth; type: cell-based, Malassezia furfur; details: for growth, OD 600 nm: 16 h growth
Method: Fractional Inhibitor Concentration (FIC) is a conventional methodology for evaluating the interaction of two antimicrobial chemicals. […] In an embodiment of the present invention, FIC is used to determine combinatorial effects of one chemical and exposure to light on Malassezia growth and/or viability in an in vitro system.
• 1. M. furfur CBS 7982 cells are exposed to a varying concentrations of an antimicrobial active (e.g. ZPT, Piroctone Olamine) for a specified amount of time (e.g. 2 min to 3 hours). • 2. After exposure, the antimicrobial is washed away by centrifugation of the cells and a series of washes • 3. Cells are then exposed to light at a wavelength of 409 nm for varying lengths of time • 4. Cells are then allowed to grow up overnight (e.g. 17 h) to determine the impact of the treatment on viability and growth of the organism by measuring OD600 II. Data Analysis: • 1. Inhibition of growth is determined to be where the OD value obtained is <=50% of the untreated control • 2. The lowest concentration value of the antimicrobial agent which inhibits growth is determined • 3. Likewise, the shortest light exposure time is determined that gives growth inhibition • 4. Finally, the combination of the lowest concentration of the antimicrobial and the shortest light exposure time that provides growth inhibition is determined • 5. The FIC value is determined using the calculation below:
[formula] • 6. The combinatorial effect of the antimicrobial and light is classified according to the chart below: […]
M. furfur is incubated for one hour with varying concentrations of Piroctone Olamine. Cell pellets are collected by centrifugation so that most of the anti-fungal material has been removed. The cell pellet is suspended in PBS and 500 uL samples are distributed to four 12 well plates and treated with light (409 nm) for 1, 10 or 60 minutes or stored in the dark. Samples are then diluted into mDixon, and incubated for 16 h with subsequent growth measured by OD 600 nm.
M. furfur is incubated for one hour with varying concentrations of Hinokitiol. Cell pellets are collected by centrifugation so that most of the anti-fungal material has been removed. The cell pellet is suspended in PBS and 500 uL samples are distributed to four 12 well plates and treated with light (409 nm) for 1, 10 or 60 minutes or stored in the dark. Samples are then diluted into mDixon, and incubated for 27 h with subsequent growth measured by OD 600 nm. […]

protoporphyrin IX (PPIX) = test: Protoporphyrin IX levels in treated M. furfur cells by HPLC; type: cell-based; details: increasing concentrations
From the text: PPIX absorb light in the 400 nm range, and when light is absorbed, PPIX transitions to an excited triplet state that can react with triplet oxygen to produce singlet oxygen or the excited porphyrin can generate ROS through single electron processes. These reactive species result in a loss of cell viability.
M. furfur cells are exposed to other antifungals that are not considered chelators (i.e. selenium sulfide (SeSx), Sulfur, Climbazole, and Terbinafine). After treatment, cells are then exposed to light, or not exposed to light. Both OD are measured to measure growth and PPIX levels are measured.

For [O-]n1ccccc1=S.[O-]n1ccccc1=S.[Zn+2] [ZPT, zinc salt of 1-hydroxy-2-pyridinethione], the “growth, OD 600 nm” value (M. furfur; 4 ppm 20 min, Dark 10 min) was 10.14, the “growth, OD 600 nm” value (M. furfur; 4 ppm 20 min, Light 409 nm, 1100 foot candles, 10 min) was 4.86 and the “growth, OD 600 nm” value (M. furfur; 8 ppm 20 min, Dark 10 min) was 9.02. The “growth, OD 600 nm” value (M. furfur; 8 ppm 20 min, Light 409 nm, 1100 foot candles, 10 min) was 3.16, the “growth, OD 600 nm” value (M. furfur; 16 ppm 20 min, Dark 10 min) was 5.72 and the “growth, OD 600 nm” value (M. furfur; 16 ppm 20 min, Light 409 nm, 1100 foot candles, 10 min) was 0.24. The “growth inhibition” value (M. furfur; 16 to 32 ppm, without light exposure) was “some growth inhibition”, the “growth, OD 600 nm” value (M. furfur; 24 ppm 20 min, Dark 10 min) was 5.54 and the “growth, OD 600 nm” value (M. furfur; 24 ppm 20 min, Light 409 nm, 1100 foot candles, 10 min) was 2.41. For the same compound, the “growth, OD 600 nm” value (M. furfur; 32 ppm 20 min, Dark 10 min) was 2.61, the “growth, OD 600 nm” value (M. furfur; 32 ppm 20 min, Light 409 nm, 1100 foot candles, 10 min) was 1.65 and the “growth inhibition” value (M. furfur; prior treatment, with the addition of light) was “considerable growth inhibition”. For the same compound, the “shortest light exposure time when applied in combination to give growth inhibition” value (M. furfur CBS 7982; 409 nm light, with the lowest inhibiting concentration) was 2 min, the “growth, OD 600 nm” value (M. furfur CBS 7982; ZPT 1.25 ppm 3 h, 409 nm light 0 min) was 7.76 and the “growth, OD 600 nm” value (M. furfur CBS 7982; ZPT 1.25 ppm 3 h, 409 nm light 2 min) was 7.24. For the same compound, the “growth, OD 600 nm” value (M. furfur CBS 7982; ZPT 1.25 ppm 3 h, 409 nm light 10 min) was 6.24, the “growth, OD 600 nm” value (M. furfur CBS 7982; ZPT 1.25 ppm 3 h, 409 nm light 60 min) was 1.96 and the “growth, OD 600 nm” value (M. furfur CBS 7982; ZPT 2.5 ppm 3 h, 409 nm light 0 min) was 7.12. The “growth, OD 600 nm” value (M. furfur CBS 7982; ZPT 2.5 ppm 3 h, 409 nm light 2 min) was 3.35, the “growth, OD 600 nm” value (M. furfur CBS 7982; ZPT 2.5 ppm 3 h, 409 nm light 10 min) was 0.31 and the “growth, OD 600 nm” value (M. furfur CBS 7982; ZPT 2.5 ppm 3 h, 409 nm light 60 min) was 0.03. For the same compound, the “growth, OD 600 nm” value (M. furfur CBS 7982; ZPT 5 ppm 3 h, 409 nm light 0 min) was 6.21, the “growth, OD 600 nm” value (M. furfur CBS 7982; ZPT 5 ppm 3 h, 409 nm light 2 min) was 5.30 and the “growth, OD 600 nm” value (M. furfur CBS 7982; ZPT 5 ppm 3 h, 409 nm light 10 min) was 3.72. For the same compound, the “growth, OD 600 nm” value (M. furfur CBS 7982; ZPT 5 ppm 3 h, 409 nm light 60 min) was 0.87, the “growth, OD 600 nm” value (M. furfur CBS 7982; ZPT 10 ppm 3 h, 409 nm light 0 min) was 4.85 and the “growth, OD 600 nm” value (M. furfur CBS 7982; ZPT 10 ppm 3 h, 409 nm light 2 min) was 4.91. The “growth, OD 600 nm” value (M. furfur CBS 7982; ZPT 10 ppm 3 h, 409 nm light 10 min) was 4.06, the “growth, OD 600 nm” value (M. furfur CBS 7982; ZPT 10 ppm 3 h, 409 nm light 60 min) was 0.83 and the “growth, OD 600 nm” value (M. furfur CBS 7982; ZPT 20 ppm 3 h, 409 nm light 0 min) was 0.51. For the same compound, the “growth, OD 600 nm” value (M. furfur CBS 7982; ZPT 20 ppm 3 h, 409 nm light 2 min) was 0.58, the “growth, OD 600 nm” value (M. furfur CBS 7982; ZPT 20 ppm 3 h, 409 nm light 10 min) was 0.64 and the “growth, OD 600 nm” value (M. furfur CBS 7982; ZPT 20 ppm 3 h, 409 nm light 60 min) was 0.37. For the same compound, the “lowest concentration to give growth inhibition” value (M. furfur CBS 7982; antimicrobial alone, no light, inhibition = OD <=50% of untreated control) was 10 ppm, the FIC value (M. furfur CBS 7982; antimicrobial plus 409 nm light) was 0.28 and the “Combinatorial Effect” value (M. furfur CBS 7982; antimicrobial plus 409 nm light, classified by FIC value) was “synergistic”. The “lowest concentration when applied in combination with light to give growth inhibition” value (M. furfur CBS 7982; with 409 nm light, inhibition = OD <=50% of untreated control) was 2.5 ppm and the “PPIX levels” value (protoporphyrin IX (PPIX)) was “increased levels of PPIX”.
